Experiment [1] has as its target gp120/CD4 (Homo sapiens, UniProt P01730). The experiment in a line: biochemical.
Description: (§1) Flat-bottom, 96-well MaxiSorp plates (NUNC, Roskilde, Denmark) were coated with recombinant sCD4 (5 µg/well) or HIV-1BaL gp120 (2 µg/well) in phosphate-buffered saline (PBS) for 18 hrs at 4°C. Bovine serum albumin (BSA) 3% was used for blocking the plates. Antibodies were added in 100 µl PBS+0.05%BSA and incubated for 1 hr at 37°C, after which the plate was washed and incubated for an additional hour at room temperature with the secondary antibody. Peroxidase-conjugated, affinity-purified goat-anti-mouse IgG or goat-anti-human IgG (Dako, Glostrup, Denmark) were used as secondary antibodies. […] The specific signal was calculated by subtracting background values obtained from replicate wells containing all the reagents except the specific ligand for each assay. Binding of mAbs 17b and 48d, directed to CD4-induced epitopes, was performed after preincubation of immobilized gp120 with sCD4 (2 µg/well) in PBS for 20 min at 37°C [65].
Experiment [2] concerns X4 HIV-1 envelopes. To be noted: read-out: mean IC50, envelope-mediated fusion, PM1 effector cells, NIH-3T3 CD4/CXCR4 target cells, 2 h at 37°C, medium without FCS, β-galactosidase, 3 experiments.
Experiment [3] relates to HIV-1 envelope. The conditions noted are these: envelope not stated.
Experiment [4] deals with primary isolate HIV-1J176 in purified CD4+ T lymphocytes.
Description: Viral stocks were titrated on activated human CD4^+ T cells.
PBMCs were isolated from healthy blood donors by standard Ficoll-HyPaque (Pharmacia, Uppsala, Sweden) density gradient centrifugation from concentrated leukocytes of healthy blood donors and stimulated with 5 µg/ml PHA (Sigma, St. Louis, MO) in complete RPMI medium supplemented with 10% FBS and 50 U/ml recombinant IL-2 (Proleukin; Chiron Corporation, Emeryville, CA) (RPMI-10). After 3 days in culture, CD4^+ T cell population was enriched by negative immunomagnetic selection using Dynabeads M-450 (Invitrogen Carlsbad, CA) coated with monoclonal antibodies to CD8, CD14, CD19 and CD56 (Sigma, St. Louis, MO) according to the manufacturer’s protocol. Infection was carried out by spinoculation for 1.5 hours as previously described [32] with minor modifications. […]
The HIV-1 p24 Ag concentrations in the culture supernatants were determined by enzyme-linked immunosorbent assay (ELISA) at days 4 and 6 post-infection as previously described [68]. […] Bound p24 Ag was then detected using an alkaline phosphatase–conjugated anti-p24 monoclonal antibody (BC 1071-AP; Aalto Bio Reagents) and the AMPAK ELISA amplification system (DAKO A/S, Glostrup, Denmark).
For experiment [5], the target named is recombinant soluble CD4 (sCD4) (Homo sapiens, UniProt P01730). In words: biochemical.
Description: as §1
The test system of experiment [6] is SHIV. The conditions noted are these: macaques; ref [61]; cited from earlier work. The source says:
Moreover, HD5 may share the mechanism of action of cyanovirin-N, a lectin-like protein that binds to mannose moieties in gp120 and of mAb IgG1b12, with which it competes for the same binding site on CD4 receptor. Both of these virus-targeting entry-inhibitors have been reported to protect macaques from vaginal SHIV ...

The target of experiment [7] is recombinant HIV-1 gp120 from isolate BaL (HIV-1 isolate BaL). In words: ELISA; competition: increasing HD5 against the binding of sCD4 and gp120; the text has gp120 on plastic and sCD4 in solution, the legend has sCD4 coated at 5 µg/mL and gp120BaL in solution; HD5 added first and kept in the wells. For orientation: In an ELISA, binding on a coated surface is turned into a signal by an enzyme label.

Experiment [8] concerns the target recombinant HIV-1 gp120 from isolate SF162 (HIV-1 isolate SF162). In words: ELISA; competition: increasing HD5 against mAb IgG1b12 (5 µg/mL) for binding to plastic-immobilised recombinant gp120; PBS + 0.05% BSA, 1 hr at 37°C.
Experiment [9] concerns the target recombinant human soluble CD4 (human). The experiment in a line: ELISA; competition: increasing HD5 against anti-CD4 mAb (Leu3a; OKT4) for binding to plastic-immobilised sCD4 (coated at 5 µg/mL); HD5 added before the mAb and kept in the wells.

Where two headings read alike, the source gives them in different places. Where a SMILES comes first, the peptide text is derived from it. Bridges are numbered along the chain shown (N, C = ends).

Take `CC[C@H](C)[C@@H]1NC(=O)[C@H](CCC(=O)O)NC(=O)[C@@H]2CSSC[C@@H]3NC(=O)[C@H](Cc4ccc(O)cc4)NC(=O)[C@@H](NC(=O)[C@@H](NC(=O)[C@H](C)N)[C@@H](C)O)CSSC[C@@H](C(=O)N[C@@H](CCCNC(=N)N)C(=O)O)NC(=O)[C@H](CSSC[C@H](NC(=O)[C@H](CCCNC(=N)N)NC(=O)CNC(=O)[C@H]([C@@H](C)O)NC(=O)[C@H](CCCNC(=N)N)NC3=O)C(=O)N[C@@H](C)C(=O)N[C@@H]([C@@H](C)O)C(=O)N[C@@H](CCCNC(=N)N)C(=O)N[C@@H](CCC(=O)O)C(=O)N[C@@H](CO)C(=O)N[C@@H](CC(C)C)C(=O)N[C@@H](CO)C(=O)NCC(=O)N[C@@H](C(C)C)C(=O)N2)NC(=O)[C@H](CC(C)C)NC(=O)[C@H](CCCNC(=N)N)NC(=O)[C@H](Cc2ccc(O)cc2)NC(=O)[C@H](CC(C)C)NC(=O)[C@H](CCCNC(=N)N)NC(=O)CNC(=O)[C@H](CO)NC1=O` [HD5] (H-ATCYCRTGRCATRESLSGVCEISGRLYRLCCR-OH; disulfide 3-31, 5-20, 10-30): the IC50 in experiment [1] was 0.9 µM; in [2] it was 2.77 ± 0.38 µM; in experiment [3] (read-out: IC50, fusion with FBS, with FBS (2.5% vol/vol)) it was 56 µM; in [3] (read-out: IC50, fusion without FBS, without FBS), 2.3 µM; in experiment [4] (primary isolate 1J176 in purified CD4+ T lymphocytes, 1 h), 0.06 µM; in [4] (read-out: half-maximal inhibitory concentration (IC50), HIV-1 replication, HIV-1J176, no serum (RPMI-0.3-ITS: 0.3% human AB serum, ITS, rIL-2 50 U/ml), virions pre-incubated with HD5 1 h at 37°C, spinoculation 1.5 h, p24 ELISA day 6, mean of 3 experiments in triplicate) it was 0.4 µM. For the same molecule, in experiment [5], the IC50 was determined as 1.8 µM.

In the case of cyanovirin-N, the “protection from vaginal SHIV-challenge” value in [6] is recorded as “protect macaques from vaginal SHIV-challenge”.

With ATCYCRTGRCATRESLSGVCEISGRLYRLCCR [human α-defensin-5], the values for the IC50 in experiment [7], in experiment [8] and in [9] were 0.9 µM, 6.5 µM and 1.8 µM, respectively.

Values taken from paper PMC3459904, “Inhibition of HIV-1 Infection by Human α-Defensin-5, a Natural Antimicrobial Peptide Expressed in the Genital and Intestinal Mucosae” (PLoS ONE, 2012).
